In US6825230B2, “Spiro and dispiro 1,2,4-trixolane antimalarials” (Medicines for Malaria Venture MMV, priority 2002, dated 2004):

System: ANKA strain of P. berghei
Assay: Single dose STI in vivo screen in infected mice
Design: species or system Plasmodium berghei
Details: for Survival (days) 3 mg/kg SSV po / Activity (%) 3 mg/kg SSV po: single 3 mg/kg po in SSV; for Activity (%) 3 mg/kg SSV po / Activity (%) 10 mg/kg SSV po: percent reduction in parasitemia on day 3; for Survival (days) 10 mg/kg SSV po: single 10 mg/kg po in SSV, untreated 6-7 days; for Activity (%) 10 mg/kg SSV po: single 10 mg/kg po in standard suspending vehicle (SSV) on day 1 post-infection
Protocol: In the single dose STI in vivo screen, Moro SPF or NMRI mice infected with the ANKA strain of P. berghei (groups of three mice) were treated on day one post-infection with trioxolanes dissolved or suspended in 3% ethanol and 7% Tween 80. […] SSV consists of 0.5% w/v CMC, 0.5% v/v benzyl alcohol, 0.4% v/v Tween 80, and 0.9% w/v sodium chloride in water. Antimalarial activity was measured by percent reduction in parasitemia on day three post-infection and survival times compared to an untreated control group. Survival to day 30 post-infection is considered to be a cure. […] Other factors influencing antimalarial activity include the stability of carbon radicals formed by β-scission subsequent to the initial electron transfer to the peroxide bond and the influence of steric effects remote from the peroxide bond on the interactions between carbon radicals and potential drug targets.
Moro NMRI male mice (Fu Albino specific pathogen free) weighing 18±2 g were infected intravenously (i.v.) with 2×10^7 P. berghei ANKA strain-infected erythrocytes from donor mice on day 0 of the experiment. From donor mice with circa 30% parasitemia, heparinized blood was taken and diluted in physiological saline to 10^8 parasitized erythrocytes per ml. An aliquot (0.2 ml) of this suspension was injected i.v. into experimental and control groups of mice. […] Throughout the experiments, mice were kept in groups of three or five animals in Makrolon type II cages in an air-conditioned animal room at 22 to 23° C.
They were administered per os (p.o.) in a total volume of 0.01 ml per gram of mouse. The activity of the compound was determined by a variety of methods outlined in subsequent sections. Survival time was also recorded, and survival to day 30 post-infection was considered to be a cure.

`c1cncc(NC[C@H]2CC[C@]3(CC2)OO[C@]2(O3)C3CC4CC(C3)CC2C4)c1` [OZ293] was tested, and the “Survival (days) 3 mg/kg SSV po” value was 7.4 days, the “Activity (%) 3 mg/kg SSV po” value was 77% and the “Survival (days) 10 mg/kg SSV po” value was 8.8 days. For the same molecule, the “Activity (%) 10 mg/kg SSV po” value was 99.58%.
With `NS(=O)(=O)c1ccc(NC[C@H]2CC[C@]3(CC2)OO[C@]2(O3)C3CC4CC(C3)CC2C4)cc1` [OZ298] the “Survival (days) 3 mg/kg SSV po” value was 9.0 days, the “Activity (%) 3 mg/kg SSV po” value was 98% and the “Survival (days) 10 mg/kg SSV po” value was 9.4 days.
With `O=c1ccn(C[C@H]2CC[C@]3(CC2)OO[C@]2(O3)C3CC4CC(C3)CC2C4)cc1` [OZ302] the “Survival (days) 3 mg/kg SSV po” value was 9.0/9.0 days, the “Activity (%) 3 mg/kg SSV po” value was 88% and the “Survival (days) 10 mg/kg SSV po” value was 9.0/9.0 days.
For `O=CN1CCN(C[C@H]2CC[C@]3(CC2)OO[C@]2(O3)C3CC4CC(C3)CC2C4)CC1` [OZ303], the “Survival (days) 3 mg/kg SSV po” value was 7.6 days, the “Activity (%) 3 mg/kg SSV po” value was 69% and the “Survival (days) 10 mg/kg SSV po” value was 8.6 days.
In the case of `O=C(NC[C@H]1CC[C@]2(CC1)OO[C@]1(O2)C2CC3CC(C2)CC1C3)c1ccccn1` [OZ304], the “Survival (days) 3 mg/kg SSV po” value is reported as 8.8 days, the “Activity (%) 3 mg/kg SSV po” value is reported as 61% and the “Survival (days) 10 mg/kg SSV po” value is reported as 8.2 days. The “Activity (%) 10 mg/kg SSV po” value was 98%.
With `NCCNC(=O)C[C@H]1CC[C@]2(CC1)OO[C@]1(O2)C2CC3CC(C2)CC1C3` [OZ305] the “Survival (days) 3 mg/kg SSV po” value was 9.6 days, the “Activity (%) 3 mg/kg SSV po” value was 96% and the “Survival (days) 10 mg/kg SSV po” value was 9.2 days.
For `CS(=O)(=O)N(CC(N)=O)C[C@H]1CC[C@]2(CC1)OO[C@]1(O2)C2CC3CC(C2)CC1C3` [OZ308], the “Survival (days) 3 mg/kg SSV po” value was 6.6 days, the “Activity (%) 3 mg/kg SSV po” value was 30% and the “Survival (days) 10 mg/kg SSV po” value was 7.8 days. The “Activity (%) 10 mg/kg SSV po” value was 86%.
With `Cn1ccnc1S(=O)(=O)C[C@H]1CC[C@]2(CC1)OO[C@]1(O2)C2CC3CC(C2)CC1C3` [OZ310] the “Survival (days) 3 mg/kg SSV po” value was 8.2 days, the “Activity (%) 3 mg/kg SSV po” value was 38% and the “Survival (days) 10 mg/kg SSV po” value was 7.8 days. The “Activity (%) 10 mg/kg SSV po” value was 81%.
In the case of `NC(=O)C1CCN(C(=O)C[C@H]2CC[C@]3(CC2)OO[C@]2(O3)C3CC4CC(C3)CC2C4)CC1` [OZ311], the “Survival (days) 3 mg/kg SSV po” value is reported as 7.0 days, the “Activity (%) 3 mg/kg SSV po” value is reported as 40% and the “Survival (days) 10 mg/kg SSV po” value is reported as 8.6 days. The “Activity (%) 10 mg/kg SSV po” value was 80%.
`O=C(C[C@H]1CC[C@]2(CC1)OO[C@]1(O2)C2CC3CC(C2)CC1C3)N1CCN(c2ncccn2)CC1` [OZ314] was tested, and the “Survival (days) 3 mg/kg SSV po” value was 6.6/6.6 days, the “Activity (%) 3 mg/kg SSV po” value was 11% and the “Survival (days) 10 mg/kg SSV po” value was 6.6/6.6 days. The “Activity (%) 10 mg/kg SSV po” value was 13%.
In the case of `O=C(CNC(=O)c1cccnc1)NC[C@H]1CC[C@]2(CC1)OO[C@]1(O2)C2CC3CC(C2)CC1C3` [OZ316], the “Survival (days) 3 mg/kg SSV po” value is reported as 8.0 days, the “Activity (%) 3 mg/kg SSV po” value is reported as 7% and the “Survival (days) 10 mg/kg SSV po” value is reported as 10.0 days. For the same molecule, the “Activity (%) 10 mg/kg SSV po” value was 69%.
`CCOC(=O)CCNCC1CCC2(CC1)OOC1(O2)C2CC3CC(C2)CC1C3.Cc1ccc(S(=O)(=O)O)cc1` (stereo not shown) [OZ318] was tested, and the “Survival (days) 3 mg/kg SSV po” value was 7.6 days, the “Activity (%) 3 mg/kg SSV po” value was 29% and the “Survival (days) 10 mg/kg SSV po” value was 12.4 days. The “Activity (%) 10 mg/kg SSV po” value was 88%.
In the case of `NC(=O)c1cn(C[C@H]2CC[C@]3(CC2)OO[C@]2(O3)C3CC4CC(C3)CC2C4)cn1` [OZ320], the “Activity (%) 3 mg/kg SSV po” value is reported as 92%.
For `NC(=O)c1cncn1C[C@H]1CC[C@]2(CC1)OO[C@]1(O2)C2CC3CC(C2)CC1C3` [OZ321], the “Survival (days) 3 mg/kg SSV po” value was 9.8 days, the “Activity (%) 3 mg/kg SSV po” value was 64% and the “Survival (days) 10 mg/kg SSV po” value was 14.0 days.
In the case of `O=S(=O)(C[C@H]1CC[C@]2(CC1)OO[C@]1(O2)C2CC3CC(C2)CC1C3)c1cccc[n+]1[O-]` [OZ324], the “Survival (days) 3 mg/kg SSV po” value is reported as 7.4 days, the “Activity (%) 3 mg/kg SSV po” value is reported as 26% and the “Survival (days) 10 mg/kg SSV po” value is reported as 9.4 days. For the same molecule, the “Activity (%) 10 mg/kg SSV po” value was 60%.
